Where a name gives a salt, the structure may show the parent alone.
Target: 5HT3a receptor expressed in HEK-293T cells (Homo sapiens (Human), UniProt P46098)
Experiment: Inhibition of Ca flux activity of 5HT3 in vitro assay
Format: cell-based
Settings: calcium flux, 5HT 216 nM, approximate values
Method: Inhibition of Ca Flux Activity of 5HT3 In Vitro Assay
The 5HT3 antagonist activity of the compounds of the invention was determined by measuring the ability of the compounds to inhibit the calcium flux activity of […] receptor expressed in HEK-293T cells. HEK-293T cells were transfected with the 5HT3a expression construct using Xtreme Gene 9 (Roche) in 150 mm tissue culture treated plates and incubated for 24 hours at 37° C. Cells were then split and plated at a density of 60K cells/well in poly-lysine coated, black 96-well plates with clear bottoms (BD BioSciences) and incubated overnight at 37° C. Growth media was removed and cells loaded with 200 uL calcium indicator dye in HBSS containing 20 mM HEPES (Calcium 5 Assay kit, Molecular Devices) and incubated at 37° C. for 1 hour. While cells were incubating, the 10× antagonist and agonist/antagonist addition plates were made. For 10× antagonist plate: half log serial dilutions (final concentrations range from 10^−7 through 10^−10 with the bottom well a negative, no ligand control) were made from test compounds in DMSO at a 1000× concentration and then diluted to 10× in HBSS/20 mM HEPES. For addition plate: 5HT was diluted to 100× in HBSS/20 mM HEPES (final concentration in the assay—216 nM) and 15 uL was added to each well of the addition plate, 15 uL of 10× compound was also added to the addition plate, and finally 120 uL of HBSS/20 mM HEPES (for a total of 150 uL). Cells were then removed from the incubator and equilibrated to room temperature for 10 minutes, then 22.5 uL of 10× test compounds were added in triplicate to the plates and incubated at room temperature for 10 minutes (Tropisetron was used as a positive control in every assay). Test plate and addition plate were loaded into the FlexStation III (Molecular Devices), and using the fluidics, 22.5 uL compound additions were made (at t=˜17 seconds), and fluorescence was measured for 90 seconds, reading every 2.2 seconds. Data sets were analyzed as max minus min using Software Max Pro (Molecular Devices). IC50 curves were generated using non-linear regression in GraphPad Prism.

5HT3a receptor expressed in HEK-293T cells, sequence (P46098 24-478): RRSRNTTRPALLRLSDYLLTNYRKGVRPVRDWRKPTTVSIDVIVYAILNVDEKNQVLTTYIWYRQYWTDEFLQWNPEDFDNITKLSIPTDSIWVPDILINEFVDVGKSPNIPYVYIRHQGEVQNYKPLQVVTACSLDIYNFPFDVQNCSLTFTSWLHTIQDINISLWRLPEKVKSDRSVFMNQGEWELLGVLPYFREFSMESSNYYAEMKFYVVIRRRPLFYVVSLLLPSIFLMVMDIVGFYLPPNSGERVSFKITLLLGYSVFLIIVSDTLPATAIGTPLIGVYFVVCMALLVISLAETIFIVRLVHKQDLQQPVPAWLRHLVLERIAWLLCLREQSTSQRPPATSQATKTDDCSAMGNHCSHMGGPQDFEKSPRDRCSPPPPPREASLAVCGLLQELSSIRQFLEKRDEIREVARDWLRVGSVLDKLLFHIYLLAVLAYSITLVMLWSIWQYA

Compound	IC50
CN1[C@@H]2COC[C@H]1C[C@@H](NC(=O)c1cn(-c3cnsc3)c3ccccc13)C2 [Example 144, 1-(isothiazol-4-yl)-N-((1R,5S,7s)-9-methyl-3-oxa-9-azabicyclo[3.3.1]nonan-7-yl)-1H-indole-3-carboxamide, 2,2,2-trifluoroacetic acid salt]	0.61 nM
CC(C)S(=O)(=O)n1cc(C(=O)OC2C[C@H]3COC[C@@H](C2)N3)c2cc(F)ccc21 (stereo partly drawn) [Example 54, (1R,5S,7S)-3-oxa-9-azabicyclo[3.3.1]nonan-7-yl 5-fluoro-1-(isopropylsulfonyl)-1H-indole-3-carboxylate, 2,2,2-trifluoroacetate]	5.61 nM
(1R,3R,5S)-8-methyl-8-azabicyclo[3.2.1]octan-3-yl 1-(2,2-difluoroethyl)-1H-pyrrolo[2,3-b]pyridine-3-carboxylate 2,2,2-trifluoroacetate [Example 1]	2.13 nM
(1R,3R,5S)-8-methyl-8-azabicyclo[3.2.1]octan-3-yl 2-chloro-1-(methylsulfonyl)-1H-indole-3-carboxylate 2,2,2-trifluoroacetate [Example 6]	2.33 nM
N#Cc1ccccc1-n1cc(C(=O)O[C@H]2C[C@H]3COC[C@@H](C2)N3)c2ccccc21 [Example 171, (1R,5S,7s)-3-oxa-9-azabicyclo[3.3.1]nonan-7-yl 1-(2-cyanophenyl)-1H-indole-3-carboxylate, 2,2,2-trifluoroacetic acid salt]	1.11 nM
(1R,3R,5S)-8-methyl-8-azabicyclo[3.2.1]octan-3-yl 3,4-dihydro-2H-[1,3]oxazino[3,2-a]indole-10-carboxylate 2,2,2-trifluoroacetate [Example 19]	7.72 nM
O=C(OC1CC2COCC(C1)N2)c1cn(-c2cnccn2)c2ccccc12 [Example 141, (1R,5S,7s)-3-oxa-9-azabicyclo[3.3.1]nonan-7-yl 1-(pyrazin-2-yl)-1H-indole-3-carboxylate, 2,2,2-trifluoroacetic acid salt]	1.12 nM
CN1[C@@H]2COC[C@H]1CC(OC(=O)c1cn(CC(F)F)c3ccc(F)cc13)C2 (stereo partly drawn) [Example 58, (1R,5S,7S)-9-methyl-3-oxa-9-azabicyclo[3.3.1]nonan-7-yl 1-(2,2-difluoroethyl)-5-fluoro-1H-indole-3-carboxylate, 2,2,2-trifluoroacetate]	0.24 nM
Cc1c(C(=O)OC2C[C@H]3CC[C@@H](C2)N3C)c2ccccc2n1CC(F)F (stereo partly drawn) [Example 73, (1R,3R,5S)-8-methyl-8-azabicyclo[3.2.1]octan-3-yl 1-(2,2-difluoroethyl)-2-methyl-1H-indole-3-carboxylate, 2,2,2-trifluoroacetate]	3.15 nM
CN1[C@@H]2COC[C@H]1CC(NC(=O)c1cn(CC(F)(F)F)c3ncc(F)cc13)C2 (stereo partly drawn) [Example 52, 5-fluoro-N-((1R,5S,7S)-9-methyl-3-oxa-9-azabicyclo[3.3.1]-nonan-7-yl)-1-(2,2,2-trifluoroethyl)-1H-pyrrolo[2,3-b]pyridine-3-carboxamide, 2,2,2-trifluoroacetate]	1.05 nM
CN1[C@@H]2CC[C@H]1CC(OC(=O)c1cn(CC(F)(F)F)c3ncccc13)C2 (stereo partly drawn) [Example 41, (1R,3R,5S)-8-methyl-8-azabicyclo[3.2.1]octan-3-yl 1-(2,2,2-trifluoroethyl)-1H-pyrrolo[2,3-b]pyridine-3-carboxylate, 2,2,2-trifluoroacetate]	5.56 nM
(1R,5S,7s)-3-oxa-9- azabicyclo[3.3.1]nonan- 7-yl 1-(isothiazol-5-yl)- 1H-indole-3- carboxamide, 2,2,2- trifluoroacetic acid salt [Example 155]	1.26 nM
CN1[C@@H]2COC[C@H]1C[C@@H](NC(=O)c1cn(-c3cncn3C)c3ccccc13)C2 [Example 154, 1-(1-methyl-1H-imidazol-5-yl)-N-((1R,5S,7s)-9-methyl-3-oxa-9-azabicyclo[3.3.1]nonan-7-yl)-1H-indole-3-carboxamide]	0.328 nM
